For data set [1], the system named is H1373 (KRAS mutant cell line). The experiment in a line: Proliferation Assay H1373. The data set is classed as cell-based. The settings on record: Homo sapiens, NCI-H1373, N = 2 experiments. In outline: (§1)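 Cells plated 2000 per well, allowed 24 h to attach, then exposed 72 h to agents (0-100 μM for isogenic lines; 0.01 to 50 μM for the RPMI 1640/10% FBS-cultured 30-line NSCLC panel). MTS read at 490 nm after 2 h, normalized to no-cell and no-drug controls; IC50 from curve fitting.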

Data set [2] is described as follows: Stability in biological media: dog plasma. The data set is classed as in vitro ADME. The conditions noted are these: Dog plasma (beagle), 50 μg/ml, 37° C.
A short description of data set [3]: Pharmacokinetics after oral administration. It is filed as in vivo, mice. The conditions noted are these: for elimination half life: oral, mice. How it is done: In order to understand better the reasons for the antitumor activity of compound #7 pharmacokinetic studies were conducted. […] Following oral administration in vivo plasma concentrations of the parent compound were low, about 3 μg/ml (7 μM) whereas the de-esterified acid form (compound 8) was present at high peak concentrations of around 50 μg/ml (128 μM). When compound 8 was administered orally to mice at the same dose even higher peak concentrations of 90 μg/ml (230 μM) were achieved.

Data set [4] deals with H226 (KRAS wildtype cell line). The data set can be described thus: Proliferation Assay H226. The data set is classed as cell-based. The conditions noted are these: Homo sapiens, NCI-H226, n = 1. In outline: as §1
Data set [5] deals with T1, PH-domain of PDPK1 (Homo sapiens, UniProt O15530).
T1 construct: made in house
T1 sequence (O15530 459-550 limits assumed): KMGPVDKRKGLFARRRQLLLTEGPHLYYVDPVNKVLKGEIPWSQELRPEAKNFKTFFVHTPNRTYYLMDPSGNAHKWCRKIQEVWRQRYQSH
The data set can be described thus: SPR binding to expressed PH-domain of PDPK1. The procedure: In embodiments, the binding of identified compounds to the crystal structures of other PH-domain signaling proteins, AKT, PDPK1, Btk, and Tiam1 can be predicted. In such embodiments, the Kds exceed about 100 μM. In other embodiments, SPR can measure the binding of identified compounds to the expressed PH-domains of AKT, PDPK1 and Tiam1. […] Thus, the identified compounds appear have, at least, about 50 to about 100 fold selectivity for CNKSR1 compared to the other PH-domains studied.
A commercially available docking package, GOLD (GOLD [3.2], CCDC: Cambridge, UK, 2007) was used to evaluate the docking of compounds 1-7 into the binding pocket, see e.g. Table 5. Other docking was performed using modeling algorithms with state-of-the-art commercial drug discovery software (Schrodinger suite). GLIDE was chosen as the docking algorithm used to select and optimize compounds, providing a GlideScore as a rough estimate of binding affinity that was used to rank and select the best compounds. Additionally, ligand-based approaches provided an alternative to structure based drug discovery. Ligand-based virtual screening methodologies can take into account shape and electrostatics (like ROCS) and the pharmacophoric features (acceptor, donor, hydrophobic, aromatic, etc.) of its functional groups. […]
Background: Surface plasmon resonance follows binding to a sensor surface in real time, without labels.

In data set [6] the test system is mut-KRAS H2122 NSCLC tumor xenograft. The experiment in a line: Antitumor activity, H2122 xenograft. It is filed as in vivo. The settings on record: scid mice. The procedure:
In embodiments, identified compounds may be nontoxic at about […] for about 20 days with no weight loss and no observable toxic effects for the animal, and may have antitumor activity (FIG. 4 A).

Data set [7] can be described thus: Stability in biological media: human plasma. The data set is classed as in vitro ADME. The conditions noted are these: 50 μg/ml, 37° C.
Data set [8] can be described thus: Stability in biological media: mouse plasma. The data set is classed as in vitro ADME. The conditions noted are these: 50 μg/ml, 37° C.
The target of data set [9] is T2, AKT1 PH-domain (Homo sapiens, UniProt P31749).
T2 construct: The PH-domain His-fusion proteins (CNK1 and AKT1) were expressed and immobilized on a NTA chip; made in house
The experiment in a line: SPR binding assay (Biacore T100), AKT1 PH-domain. The settings on record: Table 6; read-out: AKT KD. Put shortly:
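His-tagged AKT1 PH domain immobilized on NTA chip to ≤10,000 RU, Biacore T100. Small-molecule analytes injected at 50 μM to 0.010 μM, 30 μL/min, with 1-5% (v/v) DMSO in samples and running buffer.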

pIC50, pKd: −log10 of the molar value. “And” between values parts separate entries of the source, which are not always exact repeats. Identical values can stand only once.

T2 sequence (P31749 5-108 limits assumed): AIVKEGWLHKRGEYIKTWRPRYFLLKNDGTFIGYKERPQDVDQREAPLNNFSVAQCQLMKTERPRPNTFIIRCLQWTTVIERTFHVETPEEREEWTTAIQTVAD

Take `CCOC(=O)Cc1nn(Cc2nc(-c3ccc(C)cc3)cs2)c(=O)c2ccccc12` [Compound 7]: the negative logarithm of the IC50 (pIC50) in data set [1] and in data set [4] was below 4.00 throughout. Further, the Half life in data set [2] is 9.3 h; in data set [7], “stable”; in [7] (listed as #7) it was “completely stable”; in data set [8] it was 6.3 min. Besides, the “plasma concentration of the parent compound” value in data set [3] (compound #7 orally 200 mg/kg, 200 mg/kg) is “about 3 μg/ml and ~7 μM”. The elimination half life in data set [3] came out at 13 h; in [3] (listed as #7), 6 h. Also, the “metabolism in vivo to the acid metabolite” value in [3] (orally 200 mg/kg, FIG. 4B) was “rapidly de-esterified”. In addition, in data set [5], the “SPR binding to PH-domain of PDPK1” value is given as “No measurable binding”. Also, the “tumor growth rate inhibition” value in data set [6] was “about 45%”. For the same compound, in data set [6] (vehicle about 55), the tumor growth rate result is “about 30 mm^3/day”. In addition, in [9], the negative logarithm of the Kd (pKd) (commonly −log10 of the Kd, conventionally taken in molar units) is 4.76.

The record behind these values is patent publication US9340532B2, “Methods and compositions for inhibiting CNKSR1” (PHUSIS THERAPEUTICS, INC., priority 2012, dated 2016).
